What was measured:
Details in all cases: 72 h
Caco-2 [1] = experiment: cell viability relative to DMSO; higher = less toxic
Calu-3 [2] = experiment: as above
HepG2 [3] = experiment: as above
U2OS [4] = experiment: as above
Vero E6 [5] = experiment: as above
Caco-2 [6] = experiment: relative viability EC50 (midpoint between 100% and the lowest measured viability); higher = less toxic
Calu-3 [7] = experiment: as above
HepG2 [8] = experiment: as above
U2OS [9] = experiment: as above
Vero E6 [10] = experiment: as above
Caco-2 [11] = experiment: drug sensitivity score (DSS) for viability; higher = more toxic; extreme values may be limits of the assay
Calu-3 [12] = experiment: as above
HepG2 [13] = experiment: as above
U2OS [14] = experiment: as above
Vero E6 [15] = experiment: as above

SMILES | cell viability (Caco-2 [1]; 1 nM) | cell viability (Caco-2 [1]; 10 nM) | cell viability (Caco-2 [1]; 100 nM) | cell viability (Caco-2 [1]; 1000 nM) | cell viability (Caco-2 [1]; 10000 nM) | cell viability (Calu-3 [2]; 1 nM) | cell viability (Calu-3 [2]; 10 nM) | cell viability (Calu-3 [2]; 100 nM) | cell viability (Calu-3 [2]; 1000 nM) | cell viability (Calu-3 [2]; 10000 nM) | cell viability (HepG2 [3]; 1 nM) | cell viability (HepG2 [3]; 10 nM) | cell viability (HepG2 [3]; 100 nM) | cell viability (HepG2 [3]; 1000 nM) | cell viability (HepG2 [3]; 10000 nM) | cell viability (U2OS [4]; 1 nM) | cell viability (U2OS [4]; 10 nM) | cell viability (U2OS [4]; 100 nM) | cell viability (U2OS [4]; 1000 nM) | cell viability (U2OS [4]; 10000 nM) | cell viability (Vero E6 [5]; 1 nM) | cell viability (Vero E6 [5]; 10 nM) | cell viability (Vero E6 [5]; 100 nM) | cell viability (Vero E6 [5]; 1000 nM) | cell viability (Vero E6 [5]; 10000 nM) | relative viability EC50 (Caco-2 [6]) | relative viability EC50 (Calu-3 [7]) | relative viability EC50 (HepG2 [8]) | relative viability EC50 (U2OS [9]) | relative viability EC50 (Vero E6 [10]) | drug sensitivity score (Caco-2 [11]) | drug sensitivity score (Calu-3 [12]) | drug sensitivity score (HepG2 [13]) | drug sensitivity score (U2OS [14]) | drug sensitivity score (Vero E6 [15])
CNC(=O)c1cccc(-c2ccc3c(N4CCOC[C@@H]4C)nc(N4CCOC[C@@H]4C)nc3n2)c1 [AZD2014] | 106% | 98.5% | 83.8% | 38.8% | 30.6% | 89.4% | 87.5% | 74.3% | 27.7% | 22.9% | 94% | 95.4% | 86.4% | 39% | 22% | 95.8% | 94.9% | 96.7% | 66.7% | 19.4% | 94.7% | 99.4% | 85.4% | 70.1% | 37.2% | 235 nM | 154 nM | 348 nM | 1200 nM | 762 nM | 13.3 | 16.1 | 13 | 8.5 | 7.5
COc1cc(CCc2cc(NC(=O)c3ccc(N4CC(C)NC(C)C4)cc3)n[nH]2)cc(OC)c1 (stereo not given) [AZD4547] | 87.5% | 93.8% | 99.3% | 104% | 80.4% | 101% | 107% | 93.8% | 99.4% | 99.8% | 95.7% | 105% | 87.3% | 90.7% | 37% | 101% | 94.8% | 95.2% | 88.2% | 49.5% | 95.7% | 98.1% | 92.5% | 96.2% | 100% | > 10000 nM | > 10000 nM | 1990 nM | 1610 nM | > 10000 nM | 0.2 | 0 | 5 | 4.5 | 0
CC(C)C[C@@H]1NC(=O)[C@@H](C(C)C)NC(=O)[C@@H]2CCCN2C(=O)[C@@H](CC(=O)O)NC(=O)[C@@H](Cc2c[nH]c3ccccc23)NC1=O [BQ-123] | 96.4% | 93.2% | 103% | 91.4% | 109% | 93.7% | 94.5% | 95.8% | 90.6% | 100% | 95.4% | 100% | 98% | 110% | 108% | 99.7% | 96% | 101% | 95% | 101% | 96.2% | 102% | 92.2% | 99.7% | 104% | > 10000 nM | > 10000 nM | > 10000 nM | > 10000 nM | > 10000 nM | 0 | 0 | 0 | 0 | 0
N[C@H](Cc1ccccc1)C(=O)O [D-phenylalanine] | 94.6% | 101% | 90.8% | 95.8% | 93.8% | 98.3% | 95.2% | 111% | 102% | 105% | 99.7% | 109% | 90.4% | 105% | 100% | 95.6% | 101% | 96.5% | 95.2% | 99.8% | 108% | 100% | 104% | 101% | 96.1% | > 10000 nM | > 10000 nM | > 10000 nM | > 10000 nM | > 10000 nM | 0 | 0 | 0 | 0 | 0
